Test: Aqueous solubility of API at various pHs
Type: physicochemical

Row | solubility (aqueous medium, pH 7, aqueous buffer) [µg/mL] | Solubility in water (water) | Structure (SMILES)
1 | < 1 | – | Cn1c(Nc2ccc(C(F)(F)F)cc2)nc2cc(Oc3ccnc(-c4ncc(C(F)(F)F)[nH]4)c3)ccc21 [API, {1-methyl-5-[2-(5-trifluoromethyl-1H-imidazol-2-yl)-pyridin-4-yloxy]-1H-benzoimidazol-2-yl}-(4-trifluoromethyl-phenyl)amine]
2 | – | practically insoluble | Cn1c(Nc2ccc(C(F)(F)F)cc2)nc2cc(Oc3ccnc(-c4ncc(C(F)(F)F)[nH]4)c3)ccc21 [{1-Methyl-5-[2-(5-trifluoromethyl-1H-imidazol-2-yl)-pyridin-4-yloxy]-1H-benzoimidazol-2-yl}-(4-trifluoromethyl-phenyl)amine]

— patent US8455662B2, “Formulations for benzimidazolyl pyridyl ethers” (Novartis AG, priority 2006, dated 2013)
